Where a name gives a salt, the structure may show the parent alone.

The target in the assay is T1, interaction between VCAM-1 and VLA-4 (Homo sapiens, UniProt P05556+P13612).
T1 construct: supplied in their natural form as surface molecules on human U937 cells; host or cells: human U937 cells (VLA-4, endogenous); the partner hVCAM-1(1-3)-IgG was made in house in transfected COS cells (ATCC CRL1651) and used as culture supernatant
T1 sequence (P13612 34-1032): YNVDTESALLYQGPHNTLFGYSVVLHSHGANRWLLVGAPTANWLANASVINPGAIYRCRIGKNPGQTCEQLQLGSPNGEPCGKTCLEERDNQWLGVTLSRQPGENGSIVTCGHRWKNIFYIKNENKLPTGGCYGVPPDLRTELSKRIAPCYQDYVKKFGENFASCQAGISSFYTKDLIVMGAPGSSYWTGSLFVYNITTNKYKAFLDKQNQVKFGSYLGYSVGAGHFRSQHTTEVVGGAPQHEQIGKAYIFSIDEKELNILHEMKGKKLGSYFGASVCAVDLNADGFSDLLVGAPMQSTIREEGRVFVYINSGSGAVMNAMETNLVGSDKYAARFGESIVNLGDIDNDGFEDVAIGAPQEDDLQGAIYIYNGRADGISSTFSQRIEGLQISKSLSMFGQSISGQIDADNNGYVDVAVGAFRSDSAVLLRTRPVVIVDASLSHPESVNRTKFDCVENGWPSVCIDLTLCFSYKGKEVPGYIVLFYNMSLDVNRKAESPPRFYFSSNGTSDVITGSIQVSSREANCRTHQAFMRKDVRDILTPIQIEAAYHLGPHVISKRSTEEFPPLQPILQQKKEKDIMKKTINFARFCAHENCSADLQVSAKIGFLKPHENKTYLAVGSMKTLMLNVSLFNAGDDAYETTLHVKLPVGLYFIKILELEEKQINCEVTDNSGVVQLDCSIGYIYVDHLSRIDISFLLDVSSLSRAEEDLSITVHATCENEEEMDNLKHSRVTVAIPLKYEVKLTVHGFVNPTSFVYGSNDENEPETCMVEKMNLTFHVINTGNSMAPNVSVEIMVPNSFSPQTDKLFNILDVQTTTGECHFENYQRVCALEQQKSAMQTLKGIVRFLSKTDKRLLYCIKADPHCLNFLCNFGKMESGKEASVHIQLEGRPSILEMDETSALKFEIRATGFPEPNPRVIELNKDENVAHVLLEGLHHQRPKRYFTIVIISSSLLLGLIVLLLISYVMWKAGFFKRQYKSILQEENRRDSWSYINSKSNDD
T1 sequence (P05556 21-798): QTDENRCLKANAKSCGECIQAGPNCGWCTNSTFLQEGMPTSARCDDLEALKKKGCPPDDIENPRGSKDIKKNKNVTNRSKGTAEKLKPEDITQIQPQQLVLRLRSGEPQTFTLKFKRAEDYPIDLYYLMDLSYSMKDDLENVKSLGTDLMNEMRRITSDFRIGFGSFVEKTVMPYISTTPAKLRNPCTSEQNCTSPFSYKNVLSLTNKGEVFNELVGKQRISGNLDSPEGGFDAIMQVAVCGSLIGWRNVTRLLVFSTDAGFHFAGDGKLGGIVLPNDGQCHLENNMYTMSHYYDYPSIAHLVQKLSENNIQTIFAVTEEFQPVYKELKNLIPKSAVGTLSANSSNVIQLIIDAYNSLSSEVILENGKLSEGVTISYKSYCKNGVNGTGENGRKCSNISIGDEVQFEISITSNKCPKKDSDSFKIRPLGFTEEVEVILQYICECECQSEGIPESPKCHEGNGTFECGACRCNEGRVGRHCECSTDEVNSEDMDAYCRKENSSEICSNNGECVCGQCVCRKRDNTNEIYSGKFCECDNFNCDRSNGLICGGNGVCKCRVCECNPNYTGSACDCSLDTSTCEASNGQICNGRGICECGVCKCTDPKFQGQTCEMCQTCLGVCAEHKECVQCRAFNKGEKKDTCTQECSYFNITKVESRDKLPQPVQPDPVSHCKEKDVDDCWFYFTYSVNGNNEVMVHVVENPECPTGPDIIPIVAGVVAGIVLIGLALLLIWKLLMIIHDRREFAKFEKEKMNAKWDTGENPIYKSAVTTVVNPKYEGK
Description: U937/VCAM-1 cell adhesion test (adhesion of U937 cells to hVCAM-1(1-3)-IgG). It is filed as cell-based. As to conditions: inhibition of adhesion of human U937 cells (ATCC CRL 1593) to hVCAM-1(1-3)-IgG. The text has this: A) U937/VCAM-1 Cell Adhesion Test
The test method used for the activity of the compounds of the formula I on the interaction between VCAM-1 and VLA-4 is the assay described below, which is specific for this interaction. The cellular binding components, that is the VLA-4 integrins, are supplied in their natural form as surface molecules on human U937 cells (ATCC CRL 1593), which belong to the leukocytes group. The specific binding components used are genetically engineered recombinant soluble fusion proteins, consisting of the extracytoplasmic domain of human VCAM-1 and the constant region of a human immunoglobulin of the subclass IgG1.
Assay for the Measurement of the Adhesion of U937 Cells (ATCC CRL 1593) to hVCAM-1 (1-3)-IgG
1. Preparation of Human VCAM-1(1-3)-IgG and Human CD4-IgG
A genetic construct for the expression of the extracellular domain of human VCAM-1, combined with the genetic sequence of the heavy chain of human immunoglobulin IgG1 (hinge, CH2 and CH3 regions) (from Brian Seed, Massachusetts General Hospital, Boston, USA; cf. Damle and Aruffo, Proc. Natl. Acad. Sci. USA 1991, 88, 6403), was employed. The soluble fusion protein hVCAM-1(1-3)-IgG contained the three aminoterminal extracellular immunoglobulin-like domains of human VCAM-1 (Damle and Aruffo, Proc. Natl. Acad. Sci. USA 1991, 88, 6403). CD4-IgG (Zettlmeissl et al., DNA and Cell Biology 1990, 9, 347) served as a fusion protein for negative controls. The recombinant proteins were expressed as soluble proteins after DEAE/dextran-mediated DNA transfection in COS cells (ATCC CRL1651) according to standard procedures (Ausubel et al., Current protocols in molecular biology, John Wiley & Sons, Inc., 1994).
2. Assay for the Measurement of the Adhesion of U937 Cells to hVCAM-1(1-3)-IgG
2.1 96-well microtiter test plates (Nunc Maxisorb) were incubated at room temperature for 1 hour with 100 μl/well of a goat-anti-human IgG antibody solution (10 μg/ml in 50 mM tris, pH 9.5). After removal of the antibody solution, washing was carried out once with PBS.
2.2 150 μl/well of a blocking buffer (1% BSA in PBS) were incubated on the plates at room temperature for 0.5 hour. After removal of the blocking buffer, washing was carried out once with PBS.
2.3 100 μl per well of a cell culture supernatant of transfected COS cells were incubated on the plates at room temperature for 1.5 hours. The COS cells were transfected with a plasmid which codes for the three N-terminal immunoglobulin-like domains of VCAM-1, coupled to the Fc portion of human IgG1 (hVCAM-1 (1-3)-IgG). The content of hVCAM-1(1-3)-IgG was about 0.5-1 μg/ml. After removing the culture supernatant, washing was carried out once with PBS.
2.4 The plates were incubated at room temperature for 20 minutes with 100 μl/well of Fc receptor blocking buffer (1 mg/ml of γ-globulin, 100 mM NaCl, 100 μM MgCl2, 100 μM MnCl2, 100 μM CaCl2, 1 mg/ml of BSA in 50 mM HEPES, pH 7.5). After removal of the Fc receptor blocking buffer, washing was carried out once with PBS.
2.5 20 μl of binding buffer (100 μM NaCl, 100 μM MgCl2, 100 μM MnCl2, 100 μM CaCl2, 1 mg/ml of BSA in 50 mM HEPES, pH 7.5) were initially introduced, and the substances to be tested were added in 10 μl of binding buffer and incubated for 20 minutes. The controls used were antibodies against VCAM-1(BBT, No. BBA6) and against VLA-4(Immunotech, No. 0764).
2.6 U937 cells were incubated in Fc receptor blocking buffer for 20 minutes and then pipetted in at a concentration of 1×10^6/ml and in an amount of 100 μl per well ([…]).
2.7 The plates were slowly immersed at an angle of 45° in stop buffer (100 mM NaCl, 100 μM MgCl2, 100 μM MnCl2, 100 μM CaCl2 in 25 mM Tris, pH 7.5) and shaken off. The process was repeated.
2.8 50 μl/well of a dye solution ([…] of Hoechst Dye 33258, 4% formaldehyde, 0.5% Triton X-100 in PBS) were then incubated on the plates for 15 minutes. […]
Compound `COc1cc(CN2C(=O)N([C@@H](CC(C)C)C(=O)N[C@@H](CC(=O)O)c3ccc(OC)c(OC)c3)C(=O)C23CCCCC3)ccc1NC(=O)Nc1ccccc1C` [Example 37, (S)-3-((S)-2-(4,4-Pentamethylene-3-(4-(3-(2-methylphenyl)ureido)-3-methoxybenzyl)-2,5-dioxoimidazolidin-1-yl)-2-(2-methylpropyl)acetylamino)-3-(3,4-dimethoxyphenyl)propionic acid] returned an IC50 of 1.3 nM.

For the compound `COc1cc(CN2C(=O)N([C@@H](CC(C)C)C(=O)N[C@@H](CC(=O)O)c3ccc(OC)c(OC)c3)C(=O)C23CCCCC3)ccc1NC(=O)Nc1ccccc1C` [Example 38, (S)-3-((S)-2-(4,4-Pentamethylene-3-(4-(3-(2-methylphenyl)ureido)-3-methoxybenzyl)-2,5-dioxoimidazolidin-1-yl)-2-(2-methylpropyl)acetylamino)-3-(3,4-dimethoxyphenyl)propionic acid tromethamine salt], half-maximal inhibition (IC50) was put at 1.6 nM.

Take `COc1ccc([C@H](CC(=O)O)NC(=O)[C@H](CC(C)C)N2C(=O)N(Cc3ccc(NC(=O)Nc4ccccc4C)cc3)C3(CCCCC3)C2=O)cc1` [Example 26, (S)-3-((S)-2-(4,4-Pentamethylene-3-(4-(3-(2-methylphenyl)ureido)benzyl)-2,5-dioxoimidazolidin-1-yl)-2-(2-methylpropyl)acetylamino)-3-(4-methoxyphenyl)propionic acid]: the IC50 is 2.6 nM.

In turn, `COc1ccc([C@H](CC(=O)O)NC(=O)[C@H](CC(C)C)N2C(=O)N(Cc3ccc(NC(=O)Nc4ccccc4C)cc3)C3(CCCCC3)C2=O)cc1OC` [Example 32, (S)-3-((S)-2-(4,4-Pentamethylene-3-(4-(3-(2-methylphenyl)ureido)benzyl)-2,5-dioxoimidazolidin-1-yl)-2-(2-methylpropyl)acetylamino)-3-(3,4-dimethoxyphenyl)propionic acid tromethamine salt] registered a half-inhibitory concentration (IC50) of 0.6 nM.

`Cc1ccccc1NC(=O)Nc1ccc(CN2C(=O)N([C@@H](CC(C)C)C(=O)N[C@@H](CC(=O)O)c3ccccc3)C(=O)C23CCCCC3)cc1` [Example 8, (S)-3-((S)-2-(4,4-Pentamethylene-3-(4-(3-(2-methylphenyl)ureido)benzyl)-2,5-dioxoimidazolidin-1-yl)-2-(2-methylpropyl)acetylamino)-3-phenylpropionic acid] yielded an IC50 of 3.2 nM.

In turn, `Cc1ccccc1NC(=O)Nc1ccc(CN2C(=O)N([C@@H](CC(C)C)C(=O)N[C@@H](CC(=O)O)c3ccc4c(c3)OCCO4)C(=O)C23CCCCC3)cc1` [Example 34, (S)-3-((S)-2-(4,4-Pentamethylene-3-(4-(3-(2-methylphenyl)ureido)benzyl)-2,5-dioxoimidazolidin-1-yl)-2-(2-methylpropyl)acetylamino)-3-(3,4-ethylenedioxyphenyl)propionic acid] displayed an IC50 of 1.8 nM.

For `COc1ccc([C@H](CC(=O)O)NC(=O)[C@H](CC(C)C)N2C(=O)N(Cc3ccc(NC(=O)Nc4ccccc4C)cc3)C3(CCCCC3)C2=O)cc1OC` [Example 31, (S)-3-((S)-2-(4,4-Pentamethylene-3-(4-(3-(2-methylphenyl)ureido)benzyl)-2,5-dioxoimidazolidin-1-yl)-2-(2-methylpropyl)acetylamino)-3-(3,4-dimethoxyphenyl)propionic acid], the IC50 came out at 0.8 nM.

For the origin of these results see patent publication US6399643B1, “Spiroimidazolidine derivatives, their preparation, their use and pharmaceutical preparations formed therefrom” (Aventis Pharma Deutschland GmbH, priority 1999, dated 2002).
